Assay results published in patent EP0378320A2, “Microbial transformation product” (Merck & Co., Inc., priority 1989, dated 1990).

Test system: mouse T lymphocytes
Test: T-cell proliferation assay (ionomycin plus PMA induced T-cell stimulation, tritiated thymidine uptake)
Format: cell-based
Conditions: T-lymphocyte, standard at 10 ng/ml
Procedure: The principle of this assay is to measure the proliferation of mouse T lymphocytes stimulated with the combination of ionomycin plus PMA. A positive sample in this assay will inhibit T-cell proliferation, as indicated by reduced tritiated thymidine uptake.
Purified L-683,756, as prepared by HPLC above, was dissolved in absolute ethanol at 1 mg/ml.
Spleens from C57B1/6 mice were taken under sterile conditions and gently dissociated in ice-cold RPMI 1640 culture medium (GIBCO, Grand Island, N.Y.) supplemented with 10% heat-inactivated fetal calf serum (GIBCO). Cells were pelleted by centrifugation at 1500 rpm for 8 minutes. […]
Purified T lymphocytes were resuspended at 2.5 x 10⁵ cells/ml in complete culture medium composed of RPMI 1640 medium with 10% heat-inactivated fetal calf serum, […] glutamine, 1 mM sodium pyruvate, 2 x 10⁻⁵ M 2-mercaptoethanol and 50 µg/ml gentamycin. […] The proliferation of T lymphocytes was assessed by measurement of tritiated thymidine incorporation. […] Radioactivity of filter discs corresponding to individual wells was measured by standard liquid scintillation counting methods (Betacounter). Mean counts per minute of replicate wells were calculated and the results expressed as percent inhibition of tritiated thymidine uptake (proliferation) as follows: [formula]

Compound: CC[C@@H]1/C=C(\C)C[C@H](C)C[C@H](OC)[C@H]2O[C@@](O)(C(=O)C(=O)N3CCCC[C@H]3C(=O)O[C@H](/C(C)=C/[C@@H]3CC[C@@H](O)[C@H](OC)C3)[C@H](C)[C@@H](O)CC1=O)[C@H](C)C[C@@H]2OC [L-683,590]
- inhibition at 0.01 µg/mL: 99%
